Measured values published in patent US7300770B2, “Detection of microbe contamination on elastomeric articles” (Kimberly-Clark Worldwide, Inc., priority 2004, dated 2007).

Legend:
[1] = system: aged chicken juice; test: N-docosyl merocyanine dye on cotton fabric spotted with aged chicken juice
[2] = system: aged chicken juice; test: Comparative dyes dropped onto aged chicken juice on paper towel; details: aged chicken juice on SCOTT paper towel
[3] = system: budgie feces suspension; test: N-methyl merocyanine coated towel exposed to budgerigar feces suspension; details: tap water control
Source text: Budgerigar feces was collected from a caged pet budgie, and shaken in approximately 10 milliliters of Atlanta city domestic tap water.

[4] = system: aged urine (approximately 1x10^5 CFU/milliliters); test: N-methyl merocyanine coated towel exposed to aged female human urine; details: aged urine filtered through 0.2-micron filter
[5] = Reichardt's dye and TMB coated towel exposed to dilute bleach; details: towel coated with mixture of Reichardt's dye and TMB

Compound | Color change on dropping dye onto aged chicken juice [2] | also measured
CCCCCCCCCCCCCCCCCCCCCC[n+]1ccc(C=Cc2ccc(O)cc2)cc1.[Br-] | – | Color change on spotting aged chicken juice ([1]; orange-yellow dye spots on cotton fabric): color change to very pale yellow; Color change on spotting aged chicken juice ([1]; pinkish-orange areas (dye + NaOH soln.)): pinkish-orange to very pale yellow
CC(=O)Nc1ccc(/N=N/c2c(N)ccc3cc(S(=O)(=O)[O-])cc(O)c23)c(S(=O)(=O)[O-])c1.[Na+].[Na+] [Acid Red 37] | No color changes were observed | –
O=C([O-])C1=NN(c2ccc(S(=O)(=O)[O-])cc2)C(=O)C1N=Nc1ccc(S(=O)(=O)[O-])cc1.[Na+].[Na+].[Na+] (centres unmarked) [Acid Yellow 23] | No color changes were observed | –
O=C1/C(=C2\Nc3ccc(S(=O)(=O)[O-])cc3C2=O)Nc2ccc(S(=O)(=O)[O-])cc21.[Na+].[Na+] [Cl Acid Blue 74] | No color changes were observed | –
Cc1ccc(Nc2ccc(Nc3ccc(C)cc3S(=O)(=O)[O-])c3c2C(=O)c2ccccc2C3=O)c(S(=O)(=O)[O-])c1.[Na+].[Na+] [Cl Acid Green 25] | No color changes were observed | –
Cc1ccc(Nc2ccc(Nc3ccc(C)cc3S(=O)(=O)[O-])c3c2C(=O)c2c(O)ccc(O)c2C3=O)c(S(=O)(=O)[O-])c1.[Na+].[Na+] [Cl Acid Green 41] | No color changes were observed | –
CCN(CC)c1ccc2c(-c3ccc(S(=O)(=O)[O-])cc3S(=O)(=O)[O-])c3ccc(=[N+](CC)CC)cc-3oc2c1.[Na+] [Cl Acid Red 52] | No color changes were observed | –
COc1cc(/C=C/c2cc[n+](C)cc2)ccc1[O-] [N-methyl merocyanine dye] | – | Color change of coated towel [3]: remained orange; Color change of coated towel [4]: did not cause a color change
Cc1cc(-c2cc(C)c(N)c(C)c2)cc(C)c1N [TMB] | – | Color response to dilute bleach solution [5]: turning orange/yellow color
